These molecules were tested against LRRK2 G2019S enzyme (Homo sapiens (Human), UniProt Q5S007, G2019S) (assay: LRRK2 G2019S TR-FRET biochemical kinase assay (LRRKtide substrate)). Settings: Table D-4; 5 nM LRRK2, 134 μM ATP, 60 minute reaction, 23° C.
LRRK2 G2019S enzyme, sequence (Q5S007 whole entry G2019S): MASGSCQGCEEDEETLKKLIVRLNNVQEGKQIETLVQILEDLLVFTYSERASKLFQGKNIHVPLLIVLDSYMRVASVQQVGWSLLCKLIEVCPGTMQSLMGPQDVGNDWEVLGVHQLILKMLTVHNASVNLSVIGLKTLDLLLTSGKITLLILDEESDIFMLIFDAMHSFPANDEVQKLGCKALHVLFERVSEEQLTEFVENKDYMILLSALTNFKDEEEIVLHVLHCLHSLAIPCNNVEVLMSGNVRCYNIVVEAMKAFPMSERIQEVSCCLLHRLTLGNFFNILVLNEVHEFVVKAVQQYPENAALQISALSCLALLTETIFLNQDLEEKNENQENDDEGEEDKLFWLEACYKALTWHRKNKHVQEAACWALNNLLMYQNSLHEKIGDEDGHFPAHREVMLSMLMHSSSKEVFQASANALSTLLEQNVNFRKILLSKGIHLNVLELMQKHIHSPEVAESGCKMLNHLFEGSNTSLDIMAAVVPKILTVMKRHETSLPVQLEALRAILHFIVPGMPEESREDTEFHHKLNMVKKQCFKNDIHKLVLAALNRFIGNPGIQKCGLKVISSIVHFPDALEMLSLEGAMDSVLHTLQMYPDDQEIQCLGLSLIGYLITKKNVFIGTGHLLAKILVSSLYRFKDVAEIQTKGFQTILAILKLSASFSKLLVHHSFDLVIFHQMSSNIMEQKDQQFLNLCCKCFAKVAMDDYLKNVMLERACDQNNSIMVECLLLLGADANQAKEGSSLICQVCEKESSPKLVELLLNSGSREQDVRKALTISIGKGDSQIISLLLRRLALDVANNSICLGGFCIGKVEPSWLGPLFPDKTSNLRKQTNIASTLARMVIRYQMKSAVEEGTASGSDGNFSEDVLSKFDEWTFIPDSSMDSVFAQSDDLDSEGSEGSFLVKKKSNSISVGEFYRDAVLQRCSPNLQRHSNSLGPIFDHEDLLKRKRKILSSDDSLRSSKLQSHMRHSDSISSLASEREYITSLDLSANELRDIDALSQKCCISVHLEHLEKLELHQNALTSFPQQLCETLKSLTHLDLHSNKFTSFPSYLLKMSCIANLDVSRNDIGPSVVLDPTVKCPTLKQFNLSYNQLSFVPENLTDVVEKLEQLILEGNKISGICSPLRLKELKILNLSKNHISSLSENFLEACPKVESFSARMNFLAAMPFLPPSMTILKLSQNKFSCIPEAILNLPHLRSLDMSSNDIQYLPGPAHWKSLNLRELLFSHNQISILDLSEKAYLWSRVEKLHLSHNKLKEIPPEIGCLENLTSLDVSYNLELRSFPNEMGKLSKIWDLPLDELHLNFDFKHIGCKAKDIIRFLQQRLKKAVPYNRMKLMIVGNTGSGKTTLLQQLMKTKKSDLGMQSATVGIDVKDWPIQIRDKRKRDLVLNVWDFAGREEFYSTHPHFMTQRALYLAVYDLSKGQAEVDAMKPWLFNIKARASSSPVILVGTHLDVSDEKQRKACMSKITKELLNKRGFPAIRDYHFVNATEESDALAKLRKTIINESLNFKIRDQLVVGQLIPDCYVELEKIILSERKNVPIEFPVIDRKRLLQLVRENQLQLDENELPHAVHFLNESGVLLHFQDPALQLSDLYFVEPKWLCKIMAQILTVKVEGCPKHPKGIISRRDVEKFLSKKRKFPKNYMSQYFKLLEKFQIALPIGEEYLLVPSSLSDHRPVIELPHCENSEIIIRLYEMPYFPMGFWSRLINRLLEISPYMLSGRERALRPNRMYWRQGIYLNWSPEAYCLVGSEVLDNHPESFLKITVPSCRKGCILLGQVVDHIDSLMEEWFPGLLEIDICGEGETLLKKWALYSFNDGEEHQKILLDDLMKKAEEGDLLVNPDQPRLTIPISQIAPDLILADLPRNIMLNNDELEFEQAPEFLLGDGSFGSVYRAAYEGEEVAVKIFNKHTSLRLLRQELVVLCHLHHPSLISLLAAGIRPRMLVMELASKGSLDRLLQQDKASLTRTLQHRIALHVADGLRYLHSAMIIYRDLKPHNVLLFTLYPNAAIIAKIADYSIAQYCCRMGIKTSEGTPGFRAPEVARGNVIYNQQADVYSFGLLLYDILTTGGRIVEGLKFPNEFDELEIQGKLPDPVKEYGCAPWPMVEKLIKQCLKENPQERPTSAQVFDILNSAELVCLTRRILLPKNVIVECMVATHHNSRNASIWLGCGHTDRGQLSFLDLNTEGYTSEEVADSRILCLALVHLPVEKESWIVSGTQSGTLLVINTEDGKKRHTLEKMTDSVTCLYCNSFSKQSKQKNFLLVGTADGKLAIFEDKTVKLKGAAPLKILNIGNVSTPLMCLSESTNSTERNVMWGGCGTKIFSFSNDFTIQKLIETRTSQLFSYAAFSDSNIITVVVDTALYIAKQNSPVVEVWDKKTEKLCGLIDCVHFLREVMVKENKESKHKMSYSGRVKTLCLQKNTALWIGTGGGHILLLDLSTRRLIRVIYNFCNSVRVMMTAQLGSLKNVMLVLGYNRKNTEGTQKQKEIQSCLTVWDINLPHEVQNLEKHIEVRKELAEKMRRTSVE
Procedure, shortened: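 5 nM LRRK2 G2019S preincubated 20 min with LRRKtide and compound (3.162-fold dilution series) in Tris pH 7.5, MgCl2, EGTA, Brij-35, DTT, then reacted 60 min at 23 °C with 134 μM ATP. EDTA-stopped; pLRRKtide antibody detection, TR-FRET read at 340 nm excitation, 520/490–495 nm emission.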
`CNc1nc(Nc2cnn(C3CCC(n4nccn4)C3)c2C)ncc1C(F)(F)F` [Compounds D-107] was tested, and the IC50 was less than 30 nM.
`CNc1nc(Nc2cnn([C@@H]3CCn4cncc43)c2C)ncc1C(F)(F)F` [Compounds D-121] gave an IC50 of less than 30 nM.
`CCNc1nc(Nc2cn([C@H]3CCn4nccc43)nc2C)ncc1C(F)(F)F` [Compounds D-122] showed an IC50 of less than 30 nM.
`CNc1nc(Nc2cnn([C@@H]3CCC(n4nccn4)C3)c2C)ncc1C(F)(F)F` (stereo partly drawn) [Compounds D-133] gave an IC50 of less than 30 nM.
In the case of `CNc1nc(Nc2cnn([C@H]3CCC(n4nccn4)C3)c2C)ncc1C(F)(F)F` (stereo partly drawn) [Compounds D-134], the IC50 is reported as less than 30 nM.
In the case of `CNc1nc(Nc2cnn([C@@H]3CCC(n4nccn4)C3)c2C)ncc1C(F)(F)F` (stereo partly drawn) [Compounds D-141], the IC50 is reported as less than 30 nM.
Molecule `COc1nc(Nc2cnn([C@H]3CCn4ccnc43)c2C)ncc1C(F)(F)F` [Compounds D-142] has an IC50 greater than 60 nM.
With `CNc1nc(Nc2cn([C@H]3CCC(n4ccnn4)C3)nc2C)ncc1C(F)(F)F` (stereo partly drawn) [Compounds D-143] the IC50 was 30 to 60 nM.
For `CNc1nc(Nc2cnn([C@H]3CCC(n4nccn4)C3)c2C)ncc1C(F)(F)F` (stereo partly drawn) [Compounds D-149], the IC50 was 30 to 60 nM.
`CCNc1nc(Nc2cnn([C@H]3CCCn4ccnc43)c2C)ncc1C(F)(F)F` [Compounds D-151] gave an IC50 of less than 30 nM.
Molecule `CCNc1nc(Nc2cnn([C@@H]3CCn4ccnc43)c2C)ncc1C(F)(F)F` [Compounds D-152] has an IC50 of less than 30 nM.
With `CNc1nc(Nc2cnn([C@H]3CCC(n4nccn4)C3)c2C)ncc1C(F)(F)F` (stereo partly drawn) [Compounds D-156] the IC50 was less than 30 nM.
In the case of `CCNc1nc(Nc2cn([C@H]3Cc4nccn4C3)nc2C)ncc1C(F)(F)F` [Compounds D-163], the IC50 is reported as less than 30 nM.
`CNc1nc(Nc2cnn([C@H]3CCn4cncc43)c2C)ncc1C(F)(F)F` [Compounds D-166] was tested, and the IC50 was less than 30 nM.
Molecule `CCNc1nc(Nc2cnn([C@H]3CCCn4ccnc43)c2C)ncc1C(F)(F)F` [Compounds D-170] has an IC50 of less than 30 nM.
In the case of `CCNc1nc(Nc2cnn([C@H]3CCc4c(C)noc43)c2C)ncc1C(F)(F)F` [Compounds D-171], the IC50 is reported as less than 30 nM.
`CCNc1nc(Nc2cnn([C@H]3CCn4ccnc43)c2C)ncc1C(F)(F)F` [Compounds D-172] was tested, and the IC50 was less than 30 nM.
`CNc1nc(Nc2cnn([C@@H]3CCc4c(C)noc43)c2C)ncc1C(F)(F)F` [Compounds D-173] was tested, and the IC50 was greater than 60 nM.
In the case of `CNc1nc(Nc2cnn([C@H]3CCC(n4ccnn4)C3)c2C)ncc1C(F)(F)F` (stereo partly drawn) [Compounds D-175], the IC50 is reported as less than 30 nM.
For `CNc1nc(Nc2cn(C3(C)CCn4ccnc43)nc2C)ncc1C(F)(F)F` [Compounds D-188], the IC50 was greater than 60 nM.
Work on `CNc1nc(Nc2cn(C3(C)CCn4ccnc43)nc2C)ncc1C(F)(F)F` [Compounds D-189] yielded an IC50 of less than 30 nM.
For `CNc1nc(Nc2cnn([C@](C)(C#N)CF)c2C)ncc1C(F)(F)F` [Compounds D-190], the IC50 was less than 30 nM.
`CNc1nc(Nc2cnn([C@@](C)(C#N)CF)c2C)ncc1C(F)(F)F` [Compounds D-191] gave an IC50 of less than 30 nM.
For `CNc1nc(Nc2cnn([C@](C)(C#N)C(F)F)c2C)ncc1C(F)(F)F` [Compounds D-199], the IC50 was less than 30 nM.
In the case of `CNc1nc(Nc2cnn([C@@](C)(C#N)C(F)F)c2C)ncc1C(F)(F)F` [Compounds D-200], the IC50 is reported as less than 30 nM.
`Cc1c(Nc2ncc(C(F)(F)F)c(NC3CC3)n2)cnn1[C@](C)(C#N)CF` [Compounds D-201] showed an IC50 of less than 30 nM.
`Cc1c(Nc2ncc(C(F)(F)F)c(NC3CC3)n2)cnn1C(C)(C#N)CF` [Compounds D-202] gave an IC50 of less than 30 nM.
`CCNc1nc(Nc2cnn([C@@]3(C)CCn4ccnc43)c2C)ncc1C(F)(F)F` [Compounds D-205] showed an IC50 greater than 60 nM.
`CCNc1nc(Nc2cnn([C@]3(C)CCn4ccnc43)c2C)ncc1C(F)(F)F` [Compounds D-206] was tested, and the IC50 was less than 30 nM.

— patent publication US11214565B2, “Compound, compositions, and methods” (Denali Therapeutics Inc., priority 2015, dated 2022)
